Results reported in ChEMBL document CHEMBL5614376, “Discovery of MT-1207: A Novel, Potent Multitarget Inhibitor as a Promising Clinical Candidate for the Treatment of Hypertension” (J Med Chem, 2024).
Calls of active or inactive are those of the source. No cut-off for these calls is given here.

Columns and labels:
[1] = AUC (0 to t) in male Sprague-Dawley rat at 30 mg/kg, po qd treated for 13 weeks consecutively measured after recovery period on day 91 by UP/LC/MS/MS analysis; format: ADME, organism-based; settings: in vivo, time 91 day
[2] = Metabolic stability in human plasma assessed as enzymatic hydrolysis at 50 to 10000 ng/ml incubated upto 120 mins; format: ADME, cell-free; settings: 2 h, dose 50-10000 ng/ml
[3] = Metabolic stability in rat plasma assessed as enzymatic hydrolysis at 50 to 10000 ng/ml incubated upto 120 mins; format: ADME, cell-free; settings: 2 h, dose 50-10000 ng/ml
[4] = system: Rattus norvegicus; experiment: Effect on postural hypotension in Sprague-Dawley rat assessed as change in systolic blood pressure at 2.5 mg/kg, po treated for >30 mins followed by induction of postural hypotension measured 60 secs after postural change (reference value: 127 +/- 10 mmHg); format: functional; settings: time > 31 min
[5] = Plasma protein binding in Sprague-Dawley rat at 0.1 uM incubated for 30 mins; format: ADME, cell-free; settings: read-out: PPB (converted)
[6] = Cmax in Sprague-Dawley rat at 3 mg/kg, po measured for 24 hrs by UPLC/MS/MS analysis; format: ADME, organism-based; settings: in vivo
[7] = Apparent oral clearance in Sprague-Dawley rat at 9 mg/kg, po measured for 24 hrs by UPLC/MS/MS analysis; format: ADME, organism-based; settings: in vivo
[8] = system: Rattus norvegicus; experiment: Effect on postural hypotension in Sprague-Dawley rat assessed as change in systolic blood pressure at 5 mg/kg, po treated for >30 mins followed by induction of postural hypotension measured 5 secs after postural change (reference value: 126 +/- 12 mmHg); format: functional; settings: time > 30.08 min, 0.5013 h
[9] = system: Rattus norvegicus; experiment: Effect on postural hypotension in Sprague-Dawley rat assessed as change in systolic blood pressure at 2.5 mg/kg, po treated for >30 mins followed by induction of postural hypotension measured 40 secs after postural change (reference value: 128 +/- 11 mmHg); format: functional; settings: time > 30.67 min, 0.5112 h
[10] = Plasma protein binding in Cynomolgus monkey at 0.1 uM incubated for 30 mins; format: ADME, cell-free, Macaca fascicularis; settings: read-out: PPB (converted)
[11] = Toxicity in Sprague-Dawley rat assessed as notable drug-related change at 10 to 100 mg/kg, po qd treated for 13 weeks consecutively measured after 4 week recovery period; format: organism-based; settings: in vivo, 2856 h, dose 10-100 mg/kg, time 17 weeks
[12] = Plasma protein binding in human at 1 uM incubated for 30 mins; format: ADME, cell-free; settings: read-out: PPB (converted)
[13] = system: Rattus norvegicus; experiment: Effect on postural hypotension in Sprague-Dawley rat assessed as change in systolic blood pressure at 10 mg/kg, po treated for >30 mins followed by induction of postural hypotension measured 5 secs after postural change (reference value: 126 +/- 12 mmHg); format: functional; settings: time > 30.08 min, 0.5013 h
[14] = system: Rattus norvegicus; experiment: Effect on postural hypotension in Sprague-Dawley rat assessed as change in systolic blood pressure at 5 mg/kg, po treated for >30 mins followed by induction of postural hypotension measured immediately after postural change (reference value: 131 +/- 9 mmHg); format: functional; settings: 0.5 h
[15] = Tmax in Sprague-Dawley rat at 1 mg/kg, iv measured for 24 hrs by UPLC/MS/MS analysis; format: ADME, organism-based; settings: in vivo
[16] = molecular target: 5-hydroxytryptamine receptor 2A (Homo sapiens, UniProt P28223); experiment: Displacement of [3H]Ketanserin from recombinant human 5-HT2A receptor extracted from CHO cell membrane at 1 nM incubated for 60 mins by radioligand binding assay relative to control; format: cell membranes; settings: filed as antagonist
5-hydroxytryptamine receptor 2A, sequence (P28223 whole entry): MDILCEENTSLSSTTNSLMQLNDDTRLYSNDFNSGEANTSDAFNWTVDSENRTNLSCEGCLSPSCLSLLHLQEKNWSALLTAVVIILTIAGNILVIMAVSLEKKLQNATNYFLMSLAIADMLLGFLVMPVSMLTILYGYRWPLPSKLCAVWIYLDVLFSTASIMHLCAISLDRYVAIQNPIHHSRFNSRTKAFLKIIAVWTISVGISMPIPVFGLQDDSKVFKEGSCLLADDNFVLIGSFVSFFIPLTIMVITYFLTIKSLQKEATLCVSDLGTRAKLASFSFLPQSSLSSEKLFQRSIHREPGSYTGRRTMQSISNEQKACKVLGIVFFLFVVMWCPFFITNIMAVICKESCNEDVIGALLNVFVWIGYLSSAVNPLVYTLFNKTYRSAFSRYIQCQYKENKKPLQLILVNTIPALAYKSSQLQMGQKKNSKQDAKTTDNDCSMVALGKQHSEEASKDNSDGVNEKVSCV

[17] = AUC (0 to t) in female Sprague-Dawley rat at 30 mg/kg, po measured on day 1 by UP/LC/MS/MS analysis; format: ADME, organism-based; settings: in vivo, time 1 day
[18] = AUC (0 to t) in Sprague-Dawley rat at 1 mg/kg, iv measured for 24 hrs by UPLC/MS/MS analysis; format: ADME, organism-based; settings: in vivo
[19] = Metabolic stability in rat liver microsomes assessed as drug metabolism at 10 umol/L incubated upto 120 mins in presence of NADPH by LC-MS/MS analysis; format: ADME, Microsome; settings: 2 h, 10 µM, dose 10 µmol/L
[20] = Half life in Sprague-Dawley rat at 3 mg/kg, po measured for 24 hrs by UPLC/MS/MS analysis; format: ADME, organism-based; settings: in vivo
[21] = Metabolic stability in rat liver microsomes assessed as compound remaining at 10 umol/L incubated upto 120 mins in presence of NADPH by LC-MS/MS analysis; format: ADME, Microsome; settings: dose 10 µmol/L, read-out: Stability
[22] = Toxicity in Sprague-Dawley rat assessed as unplanned animal mortality at 10 to 100 mg/kg, po qd treated for 13 weeks consecutively measured after 4 week recovery period; format: organism-based; settings: in vivo, 2856 h, dose 10-100 mg/kg, time 17 weeks
[23] = Metabolic stability in Beagle dog liver microsomes assessed as drug metabolism at 10 umol/L incubated upto 120 mins in presence of NADPH by LC-MS/MS analysis; format: ADME, Canis lupus familiaris, Microsome; settings: 2 h, 10 µM, dose 10 µmol/L
[24] = Tmax in female Sprague-Dawley rat at 10 mg/kg, po qd treated for 13 weeks consecutively measured after recovery period on day 91 by UP/LC/MS/MS analysis; format: ADME, organism-based; settings: in vivo, time 91 day
[25] = Metabolic stability in human liver microsomes assessed as compound remaining at 10 umol/L incubated upto 120 mins in presence of NADPH by LC-MS/MS analysis; format: ADME, Microsome; settings: dose 10 µmol/L, read-out: Stability
[26] = Metabolic stability in rat liver microsomes assessed as drug elimination at 10 umol/L incubated for 5 mins in presence of NADPH by LC-MS/MS analysis; format: ADME, Microsome; settings: 10 µM, dose 10 µmol/L
[27] = Metabolic stability in Beagle dog liver microsomes assessed as drug elimination at 10 umol/L incubated for 5 mins in presence of NADPH by LC-MS/MS analysis; format: ADME, Canis lupus familiaris, Microsome; settings: 10 µM, dose 10 µmol/L
[28] = Toxicity in Sprague-Dawley rat assessed as change in body weight at 100 mg/kg, po qd treated for 13 weeks consecutively measured post-cessation of treatment; format: organism-based; settings: in vivo, 2184 h
[29] = system: Rattus norvegicus; experiment: Effect on serum urea level in 2K2C renovascular hypertensive Sprague-Dawley rat model at 10 mg/kg, po measured after 9 weeks by biochemical analysis; format: functional, organism-based
[30] = Cmax in Sprague-Dawley rat at 9 mg/kg, po measured for 24 hrs by UPLC/MS/MS analysis; format: ADME, organism-based; settings: in vivo
[31] = Metabolic stability in Beagle dog plasma assessed as enzymatic hydrolysis at 50 to 10000 ng/ml incubated upto 120 mins; format: ADME, cell-free, Canis lupus familiaris; settings: 2 h, dose 50-10000 ng/ml
[32] = Tmax in female Sprague-Dawley rat at 100 mg/kg, po measured on day 1 by UP/LC/MS/MS analysis; format: ADME, organism-based; settings: in vivo, time 1 day
[33] = Plasma protein binding in Cynomolgus monkey at 10 uM incubated for 30 mins; format: ADME, cell-free, Macaca fascicularis; settings: read-out: PPB (converted)
[34] = Half life in Sprague-Dawley rat at 1 mg/kg, iv measured for 24 hrs by UPLC/MS/MS analysis; format: ADME, organism-based; settings: in vivo
[35] = Oral bioavailability in Sprague-Dawley rat at 1 mg/kg measured for 24 hrs by UPLC/MS/MS analysis; format: ADME, organism-based; settings: in vivo
[36] = Oral bioavailability in Sprague-Dawley rat at 3 mg/kg measured for 24 hrs by UPLC/MS/MS analysis; format: ADME, organism-based; settings: in vivo
[37] = Toxicity in male Sprague-Dawley rat assessed as reduction in body weight at 100 mg/kg, po qd treated for 4 days consecutively; format: organism-based; parameters: scale not given: the % may be the effect or the level left; settings: in vivo, 96 h, time 4 day

Cl.c1ccc2c(c1)nnn2CCCCN1CCN(c2nsc3ccccc23)CC1
AUC(0-t) at 2184 h [1]: 672 ng·h/mL
Stability [2]: Stable
Stability [3]: Stable
Activity [4]: 93 mmHg
fraction unbound at 0.5 h, 0.1 µM [5]: 0.022
Cmax [6]: 85.7 ng/mL
CL/F [7]: 587 mL/min
Activity [8]: 79 mmHg
Activity [9]: 92 mmHg
fraction unbound at 0.5 h, 0.1 µM [10]: 0.015
Activity [11]: Non-Toxic
fraction unbound at 0.5 h, 1 µM [12]: 0.004
Activity [13]: 81 mmHg
Activity [14]: 89 mmHg
Tmax [15]: 0.25 h
inhibition [16]: 43.7%
AUC(0-t) at 24 h [17]: 1440 ng·h/mL
AUC(0-t) at 24 h [18]: 440 ng·h/mL
Drug metabolism [19]: Metabolite_Detected
half-life [20]: 2.15 h
remaining at 2 h, 10 µM [21]: 21.1%
Activity [22]: Non-Toxic
Drug metabolism [23]: Metabolite_Detected
Tmax [24]: 1 h
remaining at 2 h, 10 µM [25]: 23.9%
Drug excretion [26]: Active
Drug excretion [27]: Active
Activity [28]: Non-Toxic
Activity [29]: Active
Cmax [30]: 186 ng/mL
Stability [31]: Stable
Tmax [32]: 2 h
fraction unbound at 0.5 h, 10 µM [33]: 0.005
half-life [34]: 1.3 h
bioavailability [35]: 11.7%
bioavailability [36]: 31.9%
Activity [37]: ~ 5.4%
